Source: patent publication US20200261375A1, “Use Of (+)-2-Borneol In Preparation Of Drug For Promoting Upregulation Of Expression Of Sphingosine Kinase-1 And/Or BDNF” (SUZHOU PHARMAVAN CO, LTD., priority 2017, published 2020)

What was measured:
Assay type in all cases: in vivo
[1] = system: sphingosine kinase-1 (Sphk1); experiment: Rat model of focal cerebral ischemia-reperfusion (MCAO), genome-wide expression profiling of brain tissue around the infarct area: Sphk1; conditions: 2 mg/kg once by tail vein injection 2 hours after ischemia-reperfusion, brain tissue around the infarct area 48 hours after reperfusion, relative to the sham-operated group / model group
Procedure: (§1) Rat model of focal cerebral ischemia-reperfusion A rat model of middle cerebral artery occlusion (MCAD)-induced cerebral ischemia-reperfusion was prepared by thread occlusion of the internal carotid artery. A drug was administered once by tail vein injection 2 hours after ischemia-reperfusion. One dose group was set for (+)-2-borneol, i.e. 2 mg/kg. 48 hours after the cerebral ischemia-reperfusion, about a soybean size of brain tissue around the infarct area was harvested, sent to CapitalBio Technology Inc., Beijing, and subjected to genome-wide expression profiling by using Affymetrix GeneChip Rat Genome 230 2.0 Array Affymetrix Rat (Latin: Rattus norvegicus) Genome 230 2.0 chip.

[2] = system: brain-derived neurotrophic factor (BDNF); experiment: Rat model of focal cerebral ischemia-reperfusion (MCAO), genome-wide expression profiling of brain tissue around the infarct area: BDNF; conditions: 2 mg/kg once by tail vein injection 2 hours after ischemia-reperfusion, brain tissue around the infarct area 48 hours after reperfusion, relative to the sham-operated group
Procedure: as §1

[3] = system: mouse model of focal cerebral motor cortex ischemia; experiment: Mouse model of focal motor cortex ischemia (photochemical), grid test; conditions: 3.0, 1.5, 0.75 mg/kg tail vein injection, Day 14, 28, 42 after ischemic injury
Procedure: (§2) Long-term pharmacodynamic assay of (+)-2-borneol in a mouse model of focal motor cortex ischemia A mouse model of focal cerebral motor cortex ischemia was induced by photochemical method. Three dose groups were set for (+)-2-borneol, i.e. 3.0, 1.5, 0.75 mg/kg, respectively. Edaravone at a dose of 9 mg/kg was used as a positive control. A drug was administered once by tail vein injection 2 hours after cortex ischemia, and then administered every 24 hours, for a total of 14 administrations. A grid test was used to determine respectively the failure rate of forelimb on Day 14, Day 28 and Day 42 after ischemic injury; and a cylinder test was used to determine the motor asymmetry index of the affected forelimb and the contralateral forelimb on Day 14, Day 28 and Day 42 after ischemic injury to determine its effect on motor function. After the behavior measurements, 5 animals were randomly selected from each group and killed, and the brain was harvested for Golgi staining to determine the neuronal survival and dendritic richness in the penumbra area.

[4] = system: mouse model of focal cerebral motor cortex ischemia; experiment: Mouse model of focal motor cortex ischemia (photochemical), Golgi staining of brain; conditions: Golgi staining after the behavior measurements; 3.0, 1.5, 0.75 mg/kg tail vein injection, 14 administrations
Procedure: as §2

[5] = system: mouse model of focal cerebral motor cortex ischemia; experiment: Mouse model of focal motor cortex ischemia (photochemical), cylinder test; conditions: 3.0, 1.5, 0.75 mg/kg tail vein injection, 14 administrations, Day 14, 28, 42 after ischemic injury
Procedure: as §2

CC1(C)[C@@H]2CC[C@@]1(C)[C@@H](O)C2 [(+)-2-borneol]
sphingosine kinase-1 (Sphk1) expression up-regulated [1]: 2.64 fold
brain-derived neurotrophic factor (BDNF) expression up-regulated [2]: 2.67 fold
motor function of mice with photochemically induced injury ([3]; 14 administrations every 24 hours): significantly improve
failure rate of the left forelimb (affected side) ([3]; grid test, 14 administrations): significant decreases
dendritic length around the ischemic area [4]: significant improvements
dendritic spine density around the ischemic area [4]: significant improvements
number of dendritic branches around the ischemic area [4]: significant improvements
asymmetry index of both forelimbs [5]: significant decreases
